Data from PubChem BioAssay AID1918932 (Molecular Pharmacology Branch, DTP, NCI, 2023).

Test system: 171881-019-R-J1-PDC complex spheroid viability
Assay: Anticancer human tumor 171881-019-R-J1-PDC patient-derived invasive breast carcinoma cell line growth inhibition
Conditions: for IC50: curve of first compound; for viability, T/C: stronger effect = lower value
In short: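 Drug combinations with the LSD1 inhibitor iadademstat tested on tumor cells co-cultured as spheroids with endothelial cells and mesenchymal stem cells. Concentrations descended in half-log increments from clinical Cmax or 10 microM.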

[1] = second compound 0.1 µM, first compound 0.00949 µM
[2] = second compound 0.1 µM, first compound 0.03 µM
[3] = second compound 0.1 µM, first compound 0.0949 µM
[4] = second compound 0.1 µM, first compound 0.3 µM
[5] = second compound 0.1 µM, first compound 0.949 µM
[6] = second compound 0.1 µM, first compound 3 µM
[7] = second compound 0.316 µM, first compound 0.00949 µM
[8] = second compound 0.316 µM, first compound 0.03 µM
[9] = second compound 0.316 µM, first compound 0.0949 µM
[10] = second compound 0.316 µM, first compound 0.3 µM
[11] = second compound 0.316 µM, first compound 0.949 µM
[12] = second compound 0.316 µM, first compound 3 µM
[13] = second compound 1 µM, first compound 0.00949 µM
[14] = second compound 1 µM, first compound 0.03 µM
[15] = second compound 1 µM, first compound 0.0949 µM
[16] = second compound 1 µM, first compound 0.3 µM
[17] = second compound 1 µM, first compound 0.949 µM
[18] = second compound 1 µM, first compound 3 µM
[19] = second compound 3.16 µM, first compound 0.00949 µM
[20] = second compound 3.16 µM, first compound 0.03 µM
[21] = second compound 3.16 µM, first compound 0.0949 µM
[22] = second compound 3.16 µM, first compound 0.3 µM
[23] = second compound 3.16 µM, first compound 0.949 µM
[24] = second compound 3.16 µM, first compound 3 µM
[25] = second compound 10 µM, first compound 0.00949 µM
[26] = second compound 10 µM, first compound 0.03 µM
[27] = second compound 10 µM, first compound 0.0949 µM
[28] = second compound 10 µM, first compound 0.3 µM
[29] = second compound 10 µM, first compound 0.949 µM
[30] = second compound 10 µM, first compound 3 µM
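Further: spheroids exposed to agents for 7 days after 3 days growth.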

## CCN(c1cc(-c2ccc(CN3CCOCC3)cc2)cc(C(=O)NCc2c(C)cc(C)[nH]c2=O)c1C)C1CCOCC1 + NC1CC1c1ccc(-c2cccc(O)c2)cc1
Second compound 0.1 µM
  IC50: 2130 nM
Second compound 0.316 µM
  IC50: 2050 nM
Second compound 1 µM
  IC50: 1840 nM
Second compound 3.16 µM
  IC50: 1510 nM
Second compound 10 µM
  IC50: 1180 nM
[1]
  viability, T/C: 102%
[2]
  viability, T/C: 109%
[3]
  viability, T/C: 102%
[4]
  viability, T/C: 84.8%
[5]
  viability, T/C: 68%
[6]
  viability, T/C: 42.7%
[7]
  viability, T/C: 102%
[8]
  viability, T/C: 107%
[9]
  viability, T/C: 105%
[10]
  viability, T/C: 88.4%
[11]
  viability, T/C: 66.8%
[12]
  viability, T/C: 42%
[13]
  viability, T/C: 99.3%
[14]
  viability, T/C: 108%
[15]
  viability, T/C: 96.6%
[16]
  viability, T/C: 74.9%
[17]
  viability, T/C: 61%
[18]
  viability, T/C: 43%
[19]
  viability, T/C: 96%
[20]
  viability, T/C: 91.7%
[21]
  viability, T/C: 90.6%
[22]
  viability, T/C: 75.2%
[23]
  viability, T/C: 59%
[24]
  viability, T/C: 37.6%
[25]
  viability, T/C: 78.5%
[26]
  viability, T/C: 77.4%
[27]
  viability, T/C: 82.2%
[28]
  viability, T/C: 60.2%
[29]
  viability, T/C: 55.7%
[30]
  viability, T/C: 38.8%

## COc1cc(C2c3cc4c(cc3C(OC3OC5COC(C)OC5C(O)C3O)C3COC(=O)C23)OCO4)cc(OC)c1O (stereo not given) + NC1CC1c1ccc(-c2cccc(O)c2)cc1
Second compound 0.1 µM
  IC50: 753 nM
Second compound 0.316 µM
  IC50: 1010 nM
Second compound 1 µM
  IC50: 793 nM
Second compound 3.16 µM
  IC50: 554 nM
Second compound 10 µM
  IC50: 406 nM
[1]
  viability, T/C: 102%
[2]
  viability, T/C: 97%
[3]
  viability, T/C: 74%
[4]
  viability, T/C: 64%
[5]
  viability, T/C: 48.3%
[6]
  viability, T/C: 29.2%
[7]
  viability, T/C: 105%
[8]
  viability, T/C: 101%
[9]
  viability, T/C: 80.8%
[10]
  viability, T/C: 69.6%
[11]
  viability, T/C: 51.4%
[12]
  viability, T/C: 33.3%
[13]
  viability, T/C: 105%
[14]
  viability, T/C: 95.3%
[15]
  viability, T/C: 84.9%
[16]
  viability, T/C: 66.4%
[17]
  viability, T/C: 46.9%
[18]
  viability, T/C: 28.1%
[19]
  viability, T/C: 103%
[20]
  viability, T/C: 99.9%
[21]
  viability, T/C: 78.7%
[22]
  viability, T/C: 59%
[23]
  viability, T/C: 43.6%
[24]
  viability, T/C: 27.9%
[25]
  viability, T/C: 84.3%
[26]
  viability, T/C: 78.2%
[27]
  viability, T/C: 69.1%
[28]
  viability, T/C: 51.3%
[29]
  viability, T/C: 41.4%
[30]
  viability, T/C: 27.4%
